Reference: ChEMBL document CHEMBL2021903, “3-Deoxy-3,4-dehydro analogs of XM462. Preparation and activity on sphingolipid metabolism and cell fate” (Bioorg Med Chem, 2012)
The source made the active and inactive calls. No cut-off for these calls is given here.

Key:
[1] = target: T1, Sphingomyelin phosphodiesterase (Homo sapiens) (UniProt P17405); assay: Inhibition of aSMase expressed in human A549 cells using 6-hexadecanoylamino-4-methylumbelliferylphosphorylcholine as substrate at 20 uM after 2 hrs by spectrophotometry; format: cell-based
T1 sequence (whole entry): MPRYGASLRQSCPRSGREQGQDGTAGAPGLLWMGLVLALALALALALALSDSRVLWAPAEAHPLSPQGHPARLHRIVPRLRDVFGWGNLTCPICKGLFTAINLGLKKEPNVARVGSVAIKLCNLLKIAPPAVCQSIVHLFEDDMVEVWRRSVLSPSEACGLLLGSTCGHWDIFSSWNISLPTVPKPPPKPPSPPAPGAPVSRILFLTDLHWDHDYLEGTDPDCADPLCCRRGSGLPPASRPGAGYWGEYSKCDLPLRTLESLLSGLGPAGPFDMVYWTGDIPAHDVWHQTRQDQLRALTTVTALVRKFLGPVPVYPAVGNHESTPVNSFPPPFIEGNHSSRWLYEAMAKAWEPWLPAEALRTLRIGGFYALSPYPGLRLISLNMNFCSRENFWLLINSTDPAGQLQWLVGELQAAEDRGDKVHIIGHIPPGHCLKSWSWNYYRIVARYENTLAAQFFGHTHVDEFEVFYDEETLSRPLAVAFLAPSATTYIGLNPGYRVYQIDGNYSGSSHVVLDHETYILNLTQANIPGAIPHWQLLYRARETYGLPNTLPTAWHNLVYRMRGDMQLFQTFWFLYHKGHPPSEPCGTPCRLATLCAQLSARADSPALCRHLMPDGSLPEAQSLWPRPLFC

[2] = target: T2, Lysosomal acid glucosylceramidase (Homo sapiens) (UniProt P04062); assay: Inhibition of glucocerebrosidase in human A549 cells using 4-methylumbelliferyl beta-D-glucoside as substrate at 20 uM after 45 mins by spectrophotometry; format: cell-based
T2 sequence (whole entry): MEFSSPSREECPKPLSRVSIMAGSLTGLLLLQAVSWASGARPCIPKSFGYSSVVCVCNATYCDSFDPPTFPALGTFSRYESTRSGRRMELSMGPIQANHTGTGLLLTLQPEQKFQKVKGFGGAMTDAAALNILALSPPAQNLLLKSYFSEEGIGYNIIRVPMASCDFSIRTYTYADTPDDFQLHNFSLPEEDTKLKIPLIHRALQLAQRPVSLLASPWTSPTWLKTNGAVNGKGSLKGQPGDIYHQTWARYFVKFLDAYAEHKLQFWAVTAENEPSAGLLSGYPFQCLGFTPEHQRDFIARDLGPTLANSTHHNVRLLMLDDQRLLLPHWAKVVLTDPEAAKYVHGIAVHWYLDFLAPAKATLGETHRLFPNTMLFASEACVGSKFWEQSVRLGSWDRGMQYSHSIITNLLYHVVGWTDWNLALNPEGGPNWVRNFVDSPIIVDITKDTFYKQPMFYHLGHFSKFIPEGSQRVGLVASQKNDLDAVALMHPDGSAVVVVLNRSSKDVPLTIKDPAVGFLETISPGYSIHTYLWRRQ

[3] = target: T3, Sphingolipid delta(4)-desaturase DES1 (Homo sapiens, UniProt O15121); assay: Inhibition of Des1 in human A549 cells assessed as formation of CerC6NBD from dhCerC6NBD after 4 hrs by HPLC-FD analysis
T3 sequence (O15121 whole entry): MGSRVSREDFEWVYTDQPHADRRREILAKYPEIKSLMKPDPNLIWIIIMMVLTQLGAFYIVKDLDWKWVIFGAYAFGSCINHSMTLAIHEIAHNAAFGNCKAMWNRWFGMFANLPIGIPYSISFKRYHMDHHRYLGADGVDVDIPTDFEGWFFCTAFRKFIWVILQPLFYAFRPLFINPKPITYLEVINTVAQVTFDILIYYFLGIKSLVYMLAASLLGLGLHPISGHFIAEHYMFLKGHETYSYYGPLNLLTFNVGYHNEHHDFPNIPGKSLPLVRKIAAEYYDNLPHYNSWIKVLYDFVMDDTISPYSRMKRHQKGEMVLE

[4] = target: T3, Sphingolipid delta(4)-desaturase DES1; assay: Inhibition of Des1 in human HCT116 cells assessed as formation of CerC6NBD from dhCerC6NBD after 4 hrs by HPLC-FD analysis
[5] = target: T1, Sphingomyelin phosphodiesterase (Homo sapiens); assay: Inhibition of aSMase expressed in human A549 cells using 6-hexadecanoylamino-4-methylumbelliferylphosphorylcholine as substrate at 10 uM after 2 hrs by spectrophotometry; format: cell-based
[6] = target: T2, Lysosomal acid glucosylceramidase (Homo sapiens); assay: Inhibition of glucocerebrosidase in human A549 cells using 4-methylumbelliferyl beta-D-glucoside as substrate at 10 uM after 45 mins by spectrophotometry; format: cell-based
[7] = target: T1, Sphingomyelin phosphodiesterase (Homo sapiens); assay: Inhibition of aSMase expressed in human A549 cells using 6-hexadecanoylamino-4-methylumbelliferylphosphorylcholine as substrate at 40 uM after 2 hrs by spectrophotometry; format: cell-based
[8] = target: T2, Lysosomal acid glucosylceramidase (Homo sapiens); assay: Inhibition of glucocerebrosidase in human A549 cells using 4-methylumbelliferyl beta-D-glucoside as substrate at 40 uM after 45 mins by spectrophotometry; format: cell-based

CCCCCCCCCCCCCS/C=C/[C@H](CO)NC(=O)C(C)(C)C
inhibition [1]: inactive | inhibition [2]: inactive

CCCCCCCCCCCCCS/C=C/[C@H](CO)NC(=O)CCCCCCC
IC50 [3]: 18.1 µM | IC50 [4]: 18.8 µM | inhibition [5]: inactive | inhibition [6]: inactive

CCCCCCCCCCCCCS/C=C/[C@H](CO)NC(=O)c1ccc(C(C)(C)C)cc1
inhibition [7]: inactive | inhibition [8]: inactive
